# According to ChEMBL document CHEMBL5137043, “trans, trans-2-C-Aryl-3,4-dihydroxypyrrolidines as potent and selective β-glucosidase inhibitors: Pharmacological chaperones for Gaucher disease” (Eur J Med Chem, 2022):
# Assays:
# [1] = Inhibition of human lysosomal beta-glucosidase assessed as reduction of p-nitrophenol release using p-nitrophenyl-glycoside as substrate by spectrophotometric analysis; assay type: subcellular, Lysosome
# [2] = Inhibition of rice alpha-glucosidase assessed as reduction of p-nitrophenol release using p-nitrophenyl-glycoside as substrate by spectrophotometric analysis; design: species or system Oryza sativa
# [3] = target: Sucrase-isomaltase, intestinal (Rattus norvegicus, UniProt P23739); assay: Inhibition of rat small intestinal sucrase assessed as reduction of p-nitrophenol release using p-nitrophenyl-glycoside as substrate by spectrophotometric analysis; assay type: tissue-based, Small intestine
# [4] = target: T1, Lysosomal acid glucosylceramidase (Homo sapiens, UniProt P04062); assay: Inhibition of human GCase assessed as reduction of 4-methylumbelliferone liberation using 4-methylumbelliferyl-beta-glucopyranoside as substrate preincubated with enzyme for 45 mins followed by substrate addition and measured after 30 mins by fluorescence spectrophotometry
# T1 sequence (P04062 whole entry): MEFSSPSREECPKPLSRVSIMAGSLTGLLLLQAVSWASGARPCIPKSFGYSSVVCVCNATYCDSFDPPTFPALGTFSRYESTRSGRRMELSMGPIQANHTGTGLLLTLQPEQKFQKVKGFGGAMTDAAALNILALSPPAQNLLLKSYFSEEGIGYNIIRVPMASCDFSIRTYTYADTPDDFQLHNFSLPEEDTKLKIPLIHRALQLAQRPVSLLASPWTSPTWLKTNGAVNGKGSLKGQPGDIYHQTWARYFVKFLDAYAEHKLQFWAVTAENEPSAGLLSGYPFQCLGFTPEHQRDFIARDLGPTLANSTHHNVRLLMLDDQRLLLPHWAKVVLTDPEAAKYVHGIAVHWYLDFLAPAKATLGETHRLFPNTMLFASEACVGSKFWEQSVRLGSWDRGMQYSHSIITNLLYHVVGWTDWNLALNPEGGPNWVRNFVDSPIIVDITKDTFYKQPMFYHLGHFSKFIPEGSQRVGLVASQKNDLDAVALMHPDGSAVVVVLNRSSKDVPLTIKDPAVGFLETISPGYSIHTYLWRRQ
# Penicillium decumbens = assay: Inhibition of Penicillium decumbens alpha-L-rhamnosidase assessed as reduction of p-nitrophenol release using p-nitrophenyl-glycoside as substrate at 1000 uM by spectrophotometric analysis
# [5] = target: T2, Alpha-mannosidase (Canavalia ensiformis) (UniProt C0HJB3); assay: Inhibition of jack bean alpha-mannosidase assessed as reduction of p-nitrophenol release using p-nitrophenyl-glycoside as substrate at 1000 uM by spectrophotometric analysis
# T2 sequence (whole entry): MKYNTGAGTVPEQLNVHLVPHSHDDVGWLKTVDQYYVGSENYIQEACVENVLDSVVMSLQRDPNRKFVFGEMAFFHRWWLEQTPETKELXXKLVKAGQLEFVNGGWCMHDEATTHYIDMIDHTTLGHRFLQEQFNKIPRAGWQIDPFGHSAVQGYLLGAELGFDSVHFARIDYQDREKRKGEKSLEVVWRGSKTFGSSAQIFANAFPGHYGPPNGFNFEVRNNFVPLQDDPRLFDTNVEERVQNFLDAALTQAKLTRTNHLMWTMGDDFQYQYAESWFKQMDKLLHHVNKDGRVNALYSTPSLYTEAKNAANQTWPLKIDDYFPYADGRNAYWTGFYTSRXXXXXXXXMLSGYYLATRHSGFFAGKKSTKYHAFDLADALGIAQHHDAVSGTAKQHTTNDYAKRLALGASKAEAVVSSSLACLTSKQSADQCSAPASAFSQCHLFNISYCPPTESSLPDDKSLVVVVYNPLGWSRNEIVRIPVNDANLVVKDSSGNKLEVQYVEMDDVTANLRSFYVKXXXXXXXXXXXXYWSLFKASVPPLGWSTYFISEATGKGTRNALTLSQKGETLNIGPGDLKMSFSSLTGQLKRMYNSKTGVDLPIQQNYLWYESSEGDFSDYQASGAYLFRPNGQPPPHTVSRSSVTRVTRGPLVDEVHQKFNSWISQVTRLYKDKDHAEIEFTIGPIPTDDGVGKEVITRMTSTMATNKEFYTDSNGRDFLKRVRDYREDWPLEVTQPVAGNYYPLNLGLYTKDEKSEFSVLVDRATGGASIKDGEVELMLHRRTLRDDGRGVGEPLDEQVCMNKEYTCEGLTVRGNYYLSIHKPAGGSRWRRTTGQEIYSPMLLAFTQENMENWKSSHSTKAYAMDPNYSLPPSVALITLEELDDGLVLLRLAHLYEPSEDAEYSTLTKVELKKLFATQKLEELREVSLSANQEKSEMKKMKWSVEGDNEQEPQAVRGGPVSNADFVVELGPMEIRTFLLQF
# [6] = target: Lysosomal alpha-glucosidase (Rattus norvegicus) (UniProt Q6P7A9); assay: Inhibition of rat small intestinal maltase assessed as reduction of D-glucose release using maltose as substrate at 1000 uM by colorimetric analysis; assay type: tissue-based; conditions: Small intestine
# Escherichia coli = assay: Inhibition of Escherichia coli beta-glucuronidase assessed as reduction of p-nitrophenol release using p-nitrophenyl-glycoside as substrate at 1000 uM by spectrophotometric analysis
# Sus scrofa = species on record: Sus scrofa; assay: Inhibition of porcine kidney alpha-trehalase assessed as reduction of p-nitrophenol release using p-nitrophenyl-glycoside as substrate at 1000 uM by spectrophotometric analysis; assay type: tissue-based
# Aspergillus niger = assay: Inhibition of Aspergillus niger amyloglucosidase assessed as reduction of p-nitrophenol release using p-nitrophenyl-glycoside as substrate at 1000 uM by spectrophotometric analysis
# Helix pomatia = assay: Inhibition of snail beta-mannosidase assessed as reduction of p-nitrophenol release using p-nitrophenyl-glycoside as substrate at 1000 uM by spectrophotometric analysis
# Saccharomyces cerevisiae = assay: Inhibition of yeast alpha-glucosidase assessed as reduction of p-nitrophenol release using p-nitrophenyl-glycoside as substrate at 1000 uM by spectrophotometric analysis
# Bos taurus [7] = species on record: Bos taurus; assay: Inhibition of bovine liver beta-glucosidase assessed as reduction of p-nitrophenol release using p-nitrophenyl-glycoside as substrate at 1000 uM by spectrophotometric analysis
# Prunus dulcis = assay: Inhibition of almond beta-glucosidase assessed as reduction of p-nitrophenol release using p-nitrophenyl-glycoside as substrate at 1000 uM by spectrophotometric analysis
# [8] = target: Lysosomal alpha-glucosidase (Homo sapiens) (UniProt P10253); assay: Inhibition of human lysosomal alpha-glucosidase assessed as reduction of p-nitrophenol release using p-nitrophenyl-glycoside as substrate at 1000 uM by spectrophotometric analysis; conditions: Lysosome
# [9] = target: Alpha-galactosidase (Coffea arabica) (UniProt Q42656); assay: Inhibition of coffee beans alpha-galactosidase assessed as reduction of p-nitrophenol release using p-nitrophenyl-glycoside as substrate at 1000 uM by spectrophotometric analysis
# Bos taurus [10] = species on record: Bos taurus; assay: Inhibition of bovine liver beta-glucuronidase assessed as reduction of p-nitrophenol release using p-nitrophenyl-glycoside as substrate at 1000 uM by spectrophotometric analysis
# [11] = target: T3, Tissue alpha-L-fucosidase (Bos taurus) (UniProt Q2KIM0); assay: Inhibition of bovine kidney alpha-L-fucosidase assessed as reduction of p-nitrophenol release using p-nitrophenyl-glycoside as substrate at 1000 uM by spectrophotometric analysis; assay type: tissue-based
# T3 sequence (whole entry): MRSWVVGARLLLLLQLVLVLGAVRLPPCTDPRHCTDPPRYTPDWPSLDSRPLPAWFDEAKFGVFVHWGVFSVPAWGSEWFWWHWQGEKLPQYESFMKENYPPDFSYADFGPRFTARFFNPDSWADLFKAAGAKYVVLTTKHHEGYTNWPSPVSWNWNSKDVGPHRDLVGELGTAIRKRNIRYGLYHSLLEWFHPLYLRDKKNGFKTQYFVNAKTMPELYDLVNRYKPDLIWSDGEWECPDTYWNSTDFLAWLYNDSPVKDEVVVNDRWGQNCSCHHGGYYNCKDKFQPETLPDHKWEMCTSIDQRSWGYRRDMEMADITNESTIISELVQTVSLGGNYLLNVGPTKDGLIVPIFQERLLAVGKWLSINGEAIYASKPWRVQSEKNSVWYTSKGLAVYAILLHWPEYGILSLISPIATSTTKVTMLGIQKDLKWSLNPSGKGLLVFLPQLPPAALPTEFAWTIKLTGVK
# Bos taurus [12] = species on record: Bos taurus; assay: Inhibition of bovine liver beta-galactosidase assessed as reduction of p-nitrophenol release using p-nitrophenyl-glycoside as substrate at 1000 uM by spectrophotometric analysis
# [13] = Inhibition of bovine liver beta-galactosidase assessed as reduction of p-nitrophenol release using p-nitrophenyl-glycoside as substrate by spectrophotometric analysis; design: species or system Bos taurus
# [14] = Inhibition of Escherichia coli beta-glucuronidase assessed as reduction of p-nitrophenol release using p-nitrophenyl-glycoside as substrate by spectrophotometric analysis
# Oryza sativa = assay: Inhibition of rice alpha-glucosidase assessed as reduction of p-nitrophenol release using p-nitrophenyl-glycoside as substrate at 1000 uM by spectrophotometric analysis
# [15] = Inhibition of almond beta-glucosidase assessed as reduction of p-nitrophenol release using p-nitrophenyl-glycoside as substrate by spectrophotometric analysis; design: species or system Prunus dulcis
# [16] = target: T1, Lysosomal acid glucosylceramidase; assay: Inhibition of human GCase
# Lysosomal alpha-glucosidase (Rattus norvegicus), sequence (Q6P7A9 whole entry): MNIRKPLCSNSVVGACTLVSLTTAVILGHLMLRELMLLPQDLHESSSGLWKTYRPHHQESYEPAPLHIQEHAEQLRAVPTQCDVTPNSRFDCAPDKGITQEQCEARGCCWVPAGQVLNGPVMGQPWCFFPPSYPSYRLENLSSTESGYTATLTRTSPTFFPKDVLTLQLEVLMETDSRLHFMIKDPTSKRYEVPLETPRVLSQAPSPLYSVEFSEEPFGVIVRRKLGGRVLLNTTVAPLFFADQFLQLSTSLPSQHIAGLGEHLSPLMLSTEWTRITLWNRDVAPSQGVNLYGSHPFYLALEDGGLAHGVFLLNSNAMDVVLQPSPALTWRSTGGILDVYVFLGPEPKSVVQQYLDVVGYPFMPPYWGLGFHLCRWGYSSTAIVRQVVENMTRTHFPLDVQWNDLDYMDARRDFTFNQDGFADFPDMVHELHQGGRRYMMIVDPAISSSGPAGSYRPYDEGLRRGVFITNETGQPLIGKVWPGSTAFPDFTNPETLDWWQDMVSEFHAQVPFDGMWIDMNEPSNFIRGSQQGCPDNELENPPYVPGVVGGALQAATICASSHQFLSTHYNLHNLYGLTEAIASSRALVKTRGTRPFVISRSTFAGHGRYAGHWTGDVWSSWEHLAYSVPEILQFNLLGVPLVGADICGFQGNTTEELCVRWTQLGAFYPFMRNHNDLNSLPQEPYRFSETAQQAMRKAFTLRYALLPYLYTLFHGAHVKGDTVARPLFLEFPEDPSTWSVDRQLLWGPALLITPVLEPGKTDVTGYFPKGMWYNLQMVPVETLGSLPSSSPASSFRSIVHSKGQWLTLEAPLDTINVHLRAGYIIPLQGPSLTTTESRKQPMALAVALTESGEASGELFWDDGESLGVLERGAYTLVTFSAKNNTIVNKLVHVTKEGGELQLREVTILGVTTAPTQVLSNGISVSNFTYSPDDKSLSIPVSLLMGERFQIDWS
# Alpha-galactosidase (Coffea arabica), sequence (Q42656 16-378 limits assumed): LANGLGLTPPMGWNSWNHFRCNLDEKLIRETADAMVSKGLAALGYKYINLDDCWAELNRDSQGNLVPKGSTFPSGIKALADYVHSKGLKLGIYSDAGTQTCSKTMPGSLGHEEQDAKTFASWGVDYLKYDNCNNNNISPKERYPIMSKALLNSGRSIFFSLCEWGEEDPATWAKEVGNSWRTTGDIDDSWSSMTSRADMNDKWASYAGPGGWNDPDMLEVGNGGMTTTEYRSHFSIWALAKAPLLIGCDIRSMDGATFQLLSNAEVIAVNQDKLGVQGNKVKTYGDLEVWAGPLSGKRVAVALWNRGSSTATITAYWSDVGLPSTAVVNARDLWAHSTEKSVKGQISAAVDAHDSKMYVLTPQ
# Sucrase-isomaltase, intestinal, sequence (P23739 1-1013 limits assumed): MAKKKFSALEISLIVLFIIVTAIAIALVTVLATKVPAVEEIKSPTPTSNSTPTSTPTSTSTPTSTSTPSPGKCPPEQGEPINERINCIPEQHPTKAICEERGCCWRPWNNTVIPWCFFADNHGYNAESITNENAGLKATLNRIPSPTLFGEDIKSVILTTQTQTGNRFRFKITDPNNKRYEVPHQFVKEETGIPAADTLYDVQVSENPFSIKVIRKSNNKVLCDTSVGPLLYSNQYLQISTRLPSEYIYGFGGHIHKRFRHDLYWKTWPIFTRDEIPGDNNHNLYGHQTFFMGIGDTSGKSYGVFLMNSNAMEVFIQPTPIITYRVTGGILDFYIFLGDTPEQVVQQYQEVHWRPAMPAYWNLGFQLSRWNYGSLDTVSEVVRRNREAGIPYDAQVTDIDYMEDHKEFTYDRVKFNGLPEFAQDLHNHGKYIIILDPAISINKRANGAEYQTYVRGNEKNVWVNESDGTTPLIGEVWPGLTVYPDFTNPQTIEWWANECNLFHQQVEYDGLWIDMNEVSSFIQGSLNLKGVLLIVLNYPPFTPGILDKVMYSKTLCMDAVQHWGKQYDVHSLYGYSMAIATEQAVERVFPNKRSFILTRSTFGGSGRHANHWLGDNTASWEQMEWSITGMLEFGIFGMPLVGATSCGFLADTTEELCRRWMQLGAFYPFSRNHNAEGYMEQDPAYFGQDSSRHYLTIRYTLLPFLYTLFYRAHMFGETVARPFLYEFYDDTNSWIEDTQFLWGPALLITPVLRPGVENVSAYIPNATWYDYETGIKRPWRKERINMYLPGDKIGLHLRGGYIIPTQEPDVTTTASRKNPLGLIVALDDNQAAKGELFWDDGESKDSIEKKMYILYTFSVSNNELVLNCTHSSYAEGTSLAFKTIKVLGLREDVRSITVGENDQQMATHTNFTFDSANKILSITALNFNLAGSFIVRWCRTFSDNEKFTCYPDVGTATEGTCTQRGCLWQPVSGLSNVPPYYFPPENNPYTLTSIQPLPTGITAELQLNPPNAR
# Sucrase-isomaltase, intestinal, sequence (P23739 1014-1841 limits assumed): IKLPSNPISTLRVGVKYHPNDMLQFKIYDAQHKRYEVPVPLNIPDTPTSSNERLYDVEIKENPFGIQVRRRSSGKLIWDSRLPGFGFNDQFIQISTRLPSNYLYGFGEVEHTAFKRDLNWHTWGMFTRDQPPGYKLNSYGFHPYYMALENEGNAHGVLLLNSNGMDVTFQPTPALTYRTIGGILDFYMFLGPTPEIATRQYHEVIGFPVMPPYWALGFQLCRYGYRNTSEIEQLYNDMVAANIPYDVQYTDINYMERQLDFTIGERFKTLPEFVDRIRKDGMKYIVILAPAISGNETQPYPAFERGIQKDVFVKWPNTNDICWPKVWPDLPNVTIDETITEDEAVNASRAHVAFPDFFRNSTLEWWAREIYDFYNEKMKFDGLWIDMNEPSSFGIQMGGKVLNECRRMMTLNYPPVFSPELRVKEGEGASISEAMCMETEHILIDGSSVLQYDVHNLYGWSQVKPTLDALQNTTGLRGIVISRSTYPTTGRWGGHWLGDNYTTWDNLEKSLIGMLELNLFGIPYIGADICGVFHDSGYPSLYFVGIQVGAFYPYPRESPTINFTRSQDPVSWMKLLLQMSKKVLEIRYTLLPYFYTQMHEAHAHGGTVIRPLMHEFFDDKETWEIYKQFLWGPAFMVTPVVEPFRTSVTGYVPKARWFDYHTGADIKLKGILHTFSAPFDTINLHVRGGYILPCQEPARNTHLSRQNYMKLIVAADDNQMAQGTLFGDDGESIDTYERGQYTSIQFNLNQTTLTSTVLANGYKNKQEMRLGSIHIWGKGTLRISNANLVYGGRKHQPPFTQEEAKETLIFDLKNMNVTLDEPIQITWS
IC50 [1],IC50 [3],IC50 [4],inhibition (Penicillium decumbens),inhibition [5],inhibition (Sus scrofa),inhibition (Aspergillus niger),inhibition (Helix pomatia),inhibition (Saccharomyces cerevisiae),inhibition (Bos taurus [7]),inhibition [8],inhibition [9],inhibition (Bos taurus [10]),inhibition [11],SMILES,further results
22 µM,603 µM,–,–,–,–,–,–,–,–,–,–,–,–,O[C@@H]1[C@@H](O)CN[C@H]1c1ccccc1 [listing 1 of 3 here],IC50 [2]: 560 µM
–,–,38 µM,–,–,–,–,–,–,–,–,–,–,–,CCCCCCC[C@H]1N[C@H](CO)[C@@H](O)[C@@H]1O,–
–,–,–,1.8%,2%,5.7%,0%,1.1%,0.3%,31.7%,24.6%,2.6%,15%,0%,O[C@@H]1[C@@H](O)CN[C@H]1c1ccccc1 [listing 2 of 3 here],inhibition [6]: 16.5%; inhibition (Escherichia coli): 8.5%; inhibition (Prunus dulcis): 3.4%; inhibition (Bos taurus [12]): 49%
3.1 µM,264 µM,–,8.3%,20.6%,5.3%,0%,5.6%,28.5%,42.1%,26.5%,0%,0.3%,6.2%,O[C@H]1[C@H](O)CN[C@@H]1CCCc1ccccc1,IC50 [13]: 578 µM; IC50 [14]: 910 µM; inhibition (Oryza sativa): 38%; IC50 [15]: 565 µM
–,–,–,–,–,–,–,–,–,–,–,–,–,–,CCCCCCCCCC1NC[C@@H](O)[C@H](O)[C@H]1O (stereo partly drawn),IC50 [16]: 0.0068 µM
3.4 µM,1210 µM,–,2.8%,0%,0%,0%,1.9%,11%,38.2%,15%,0%,0.3%,4.2%,Cc1ccc([C@H]2NC[C@@H](O)[C@@H]2O)cc1,IC50 [13]: 602 µM; inhibition [6]: 24.6%; IC50 [14]: 269 µM; inhibition (Oryza sativa): 22.8%; inhibition (Prunus dulcis): 13.5%
–,–,–,–,–,–,–,–,–,–,–,–,–,–,O[C@@H]1[C@@H](O)CN[C@H]1c1ccccc1 [listing 3 of 3 here],IC50 [16]: 26.5 µM
–,–,30 µM,–,–,–,–,–,–,–,–,–,–,–,CCCCCC[C@H]1N[C@H](CO)[C@@H](O)[C@@H]1O,–
13 µM,117 µM,–,8.3%,1.2%,6.5%,0%,2.2%,8.6%,14.8%,30%,16.6%,0%,0%,O[C@@H]1[C@@H](O)CN[C@H]1c1ccc(F)cc1,inhibition [6]: 25.6%; inhibition (Escherichia coli): 26.8%; inhibition (Oryza sativa): 41.8%; inhibition (Prunus dulcis): 12.6%; inhibition (Bos taurus [12]): 25.2%
–,–,34 µM,–,–,–,–,–,–,–,–,–,–,–,CCCCC[C@H]1N[C@H](CO)[C@@H](O)[C@@H]1O,–
–,–,1.9 µM,–,–,–,–,–,–,–,–,–,–,–,CCCCCCCCCC[C@H]1N[C@H](CO)[C@@H](O)[C@@H]1O,–
–,–,2.3 µM,–,–,–,–,–,–,–,–,–,–,–,CCCCCCCCCCC[C@H]1N[C@H](CO)[C@@H](O)[C@@H]1O,–
–,–,–,–,–,–,–,–,–,–,–,–,–,–,CCCCCCO[C@H]1CNC[C@@H](O)[C@@H]1O,IC50 [16]: 0.009 µM
8.7 µM,389 µM,–,2.3%,0.4%,17.6%,2.3%,2.2%,5.3%,46.4%,4.8%,0%,0.3%,0%,Cc1ccc([C@@H]2NC[C@H](O)[C@H]2O)cc1,IC50 [13]: 470 µM; inhibition [6]: 23.1%; IC50 [14]: 610 µM; inhibition (Oryza sativa): 15.8%; inhibition (Prunus dulcis): 11%
–,–,3.3 µM,–,–,–,–,–,–,–,–,–,–,–,CCCCCCCCC[C@H]1N[C@H](CO)[C@@H](O)[C@@H]1O,–
–,–,6.2 µM,–,–,–,–,–,–,–,–,–,–,–,CCCCCCCC[C@H]1N[C@H](CO)[C@@H](O)[C@@H]1O,–
6.2 µM,339 µM,–,0%,0.8%,1.6%,0%,4.8%,5.6%,29%,13.4%,2%,2%,0%,O[C@H]1[C@H](O)CN[C@@H]1c1ccc(F)cc1,inhibition [6]: 14%; inhibition (Escherichia coli): 43.4%; inhibition (Oryza sativa): 47.3%; inhibition (Prunus dulcis): 15%; inhibition (Bos taurus [12]): 39.9%
–,–,0.77 µM,–,–,–,–,–,–,–,–,–,–,–,CCCCCCCCCCCCC[C@H]1N[C@H](CO)[C@@H](O)[C@@H]1O,–
